Source: BigSolDB 2.1

Compound: O=C(O)[C@@H]1C[C@@H](O)CN1
- solubility (mole fraction) (in 1,4-dioxane, 288.15 K): 0.00041
- solubility (mole fraction) (in 1,4-dioxane, 293.15 K): 0.00063
- solubility (mole fraction) (in 1,4-dioxane, 298.15 K): 0.00085
- solubility (mole fraction) (in 1,4-dioxane, 303.15 K): 0.00108
- solubility (mole fraction) (in 1,4-dioxane, 308.15 K): 0.00131
- solubility (mole fraction) (in 1,4-dioxane, 313.15 K): 0.00153
- solubility (mole fraction) (in 1,4-dioxane, 318.15 K): 0.00178
- solubility (mole fraction) (in 1,4-dioxane, 323.15 K): 0.00204
- solubility (mole fraction) (in 1,4-dioxane, 328.15 K): 0.00238
- solubility (mole fraction) (in 1,4-dioxane, 333.15 K): 0.00274
- solubility (mole fraction) (in 2-butanone, 283.15 K): 4.4e-05
- solubility (mole fraction) (in 2-butanone, 288.15 K): 7.9e-05
- solubility (mole fraction) (in 2-butanone, 293.15 K): 0.000128
- solubility (mole fraction) (in 2-butanone, 298.15 K): 0.00019
- solubility (mole fraction) (in 2-butanone, 303.15 K): 0.00028
- solubility (mole fraction) (in 2-butanone, 308.15 K): 0.000382
- solubility (mole fraction) (in 2-butanone, 313.15 K): 0.000483
- solubility (mole fraction) (in 2-butanone, 318.15 K): 0.000602
- solubility (mole fraction) (in 2-butanone, 323.15 K): 0.000723
- solubility (mole fraction) (in 2-butanone, 328.15 K): 0.000865
- solubility (mole fraction) (in 2-butanone, 333.15 K): 0.00101
- solubility (mole fraction) (in acetone, 283.15 K): 0.000922
- solubility (mole fraction) (in acetone, 288.15 K): 0.0011
- solubility (mole fraction) (in acetone, 293.15 K): 0.00139
- solubility (mole fraction) (in acetone, 298.15 K): 0.00164
- solubility (mole fraction) (in acetone, 303.15 K): 0.00205
- solubility (mole fraction) (in acetone, 308.15 K): 0.00235
- solubility (mole fraction) (in acetone, 313.15 K): 0.00277
- solubility (mole fraction) (in acetone, 318.15 K): 0.0032
- solubility (mole fraction) (in acetone, 323.15 K): 0.00383
- solubility (mole fraction) (in acetone, 328.15 K): 0.00441
- solubility (mole fraction) (in acetonitrile, 288.15 K): 3.3e-05
- solubility (mole fraction) (in acetonitrile, 293.15 K): 6.5e-05
- solubility (mole fraction) (in acetonitrile, 298.15 K): 0.000103
- solubility (mole fraction) (in acetonitrile, 303.15 K): 0.000146
- solubility (mole fraction) (in acetonitrile, 308.15 K): 0.000186
- solubility (mole fraction) (in acetonitrile, 313.15 K): 0.000226
- solubility (mole fraction) (in acetonitrile, 318.15 K): 0.000267
- solubility (mole fraction) (in acetonitrile, 323.15 K): 0.000315
- solubility (mole fraction) (in acetonitrile, 328.15 K): 0.000358
- solubility (mole fraction) (in acetonitrile, 333.15 K): 0.000416
- solubility (mole fraction) (in dichloromethane, 283.15 K): 0.000134
- solubility (mole fraction) (in dichloromethane, 288.15 K): 0.000221
- solubility (mole fraction) (in dichloromethane, 293.15 K): 0.000313
- solubility (mole fraction) (in dichloromethane, 298.15 K): 0.000412
- solubility (mole fraction) (in dichloromethane, 303.15 K): 0.000511
- solubility (mole fraction) (in dichloromethane, 308.15 K): 0.000614
- solubility (mole fraction) (in ethanol, 283.15 K): 7e-05
- solubility (mole fraction) (in ethanol, 288.15 K): 0.000109
- solubility (mole fraction) (in ethanol, 293.15 K): 0.000145
- solubility (mole fraction) (in ethanol, 298.15 K): 0.000188
- solubility (mole fraction) (in ethanol, 303.15 K): 0.000226
- solubility (mole fraction) (in ethanol, 308.15 K): 0.000273
- solubility (mole fraction) (in ethanol, 313.15 K): 0.000313
- solubility (mole fraction) (in ethanol, 318.15 K): 0.000378
- solubility (mole fraction) (in ethanol, 323.15 K): 0.000431
- solubility (mole fraction) (in ethanol, 328.15 K): 0.000512
- solubility (mole fraction) (in ethanol, 333.15 K): 0.000573
- solubility (mole fraction) (in ethyl acetate, 283.15 K): 0.000455
- solubility (mole fraction) (in ethyl acetate, 288.15 K): 0.000653
- solubility (mole fraction) (in ethyl acetate, 293.15 K): 0.000863
- solubility (mole fraction) (in ethyl acetate, 298.15 K): 0.00108
- solubility (mole fraction) (in ethyl acetate, 303.15 K): 0.00132
- solubility (mole fraction) (in ethyl acetate, 308.15 K): 0.00167
- solubility (mole fraction) (in ethyl acetate, 313.15 K): 0.0019
- solubility (mole fraction) (in ethyl acetate, 318.15 K): 0.00227
- solubility (mole fraction) (in ethyl acetate, 323.15 K): 0.00262
- solubility (mole fraction) (in ethyl acetate, 328.15 K): 0.00314
- solubility (mole fraction) (in ethyl acetate, 333.15 K): 0.00379
- solubility (mole fraction) (in isobutanol, 283.15 K): 6.9e-05
- solubility (mole fraction) (in isobutanol, 288.15 K): 8.2e-05
- solubility (mole fraction) (in isobutanol, 293.15 K): 9.7e-05
- solubility (mole fraction) (in isobutanol, 298.15 K): 0.000113
- solubility (mole fraction) (in isobutanol, 303.15 K): 0.000143
- solubility (mole fraction) (in isobutanol, 308.15 K): 0.000189
- solubility (mole fraction) (in isobutanol, 313.15 K): 0.000222
- solubility (mole fraction) (in isobutanol, 318.15 K): 0.000263
- solubility (mole fraction) (in isobutanol, 323.15 K): 0.000301
- solubility (mole fraction) (in isobutanol, 328.15 K): 0.000346
- solubility (mole fraction) (in isobutanol, 333.15 K): 0.000383
- solubility (mole fraction) (in isopropanol, 283.15 K): 3.5e-05
- solubility (mole fraction) (in isopropanol, 288.15 K): 6.8e-05
- solubility (mole fraction) (in isopropanol, 293.15 K): 9.9e-05
- solubility (mole fraction) (in isopropanol, 298.15 K): 0.000119
- solubility (mole fraction) (in isopropanol, 303.15 K): 0.000154
- solubility (mole fraction) (in isopropanol, 308.15 K): 0.000204
- solubility (mole fraction) (in isopropanol, 313.15 K): 0.000254
- solubility (mole fraction) (in isopropanol, 318.15 K): 0.00031
- solubility (mole fraction) (in isopropanol, 323.15 K): 0.00036
- solubility (mole fraction) (in isopropanol, 328.15 K): 0.000419
- solubility (mole fraction) (in isopropanol, 333.15 K): 0.000493
- solubility (mole fraction) (in methanol, 283.15 K): 0.000127
- solubility (mole fraction) (in methanol, 288.15 K): 0.000149
- solubility (mole fraction) (in methanol, 293.15 K): 0.000171
- solubility (mole fraction) (in methanol, 298.15 K): 0.000212
- solubility (mole fraction) (in methanol, 303.15 K): 0.000253
- solubility (mole fraction) (in methanol, 308.15 K): 0.000292
- solubility (mole fraction) (in methanol, 313.15 K): 0.000328
- solubility (mole fraction) (in methanol, 318.15 K): 0.000407
- solubility (mole fraction) (in methanol, 323.15 K): 0.000525
- solubility (mole fraction) (in methanol, 328.15 K): 0.000653
- solubility (mole fraction) (in methanol, 333.15 K): 0.000784
- solubility (mole fraction) (in methyl acetate, 283.15 K): 1.5e-05
- solubility (mole fraction) (in methyl acetate, 288.15 K): 4e-05
- solubility (mole fraction) (in methyl acetate, 293.15 K): 8e-05
- solubility (mole fraction) (in methyl acetate, 298.15 K): 0.000116
- solubility (mole fraction) (in methyl acetate, 303.15 K): 0.000153
- solubility (mole fraction) (in methyl acetate, 308.15 K): 0.000219
- solubility (mole fraction) (in methyl acetate, 313.15 K): 0.000278
- solubility (mole fraction) (in methyl acetate, 318.15 K): 0.000331
- solubility (mole fraction) (in methyl acetate, 323.15 K): 0.0004
- solubility (mole fraction) (in methyl acetate, 328.15 K): 0.000474
- solubility (mole fraction) (in n-butanol, 283.15 K): 8.8e-05
- solubility (mole fraction) (in n-butanol, 288.15 K): 0.0001
- solubility (mole fraction) (in n-butanol, 293.15 K): 0.000122
- solubility (mole fraction) (in n-butanol, 298.15 K): 0.000142
- solubility (mole fraction) (in n-butanol, 303.15 K): 0.000181
- solubility (mole fraction) (in n-butanol, 308.15 K): 0.000219
- solubility (mole fraction) (in n-butanol, 313.15 K): 0.000264
- solubility (mole fraction) (in n-butanol, 318.15 K): 0.000316
- solubility (mole fraction) (in n-butanol, 323.15 K): 0.000362
- solubility (mole fraction) (in n-butanol, 328.15 K): 0.00042
- solubility (mole fraction) (in n-butanol, 333.15 K): 0.0005
- solubility (mole fraction) (in n-pentanol, 283.15 K): 6.3e-05
- solubility (mole fraction) (in n-pentanol, 288.15 K): 8.4e-05
- solubility (mole fraction) (in n-pentanol, 293.15 K): 0.000114
- solubility (mole fraction) (in n-pentanol, 298.15 K): 0.000142
- solubility (mole fraction) (in n-pentanol, 303.15 K): 0.00017
- solubility (mole fraction) (in n-pentanol, 308.15 K): 0.000215
- solubility (mole fraction) (in n-pentanol, 313.15 K): 0.000321
- solubility (mole fraction) (in n-pentanol, 318.15 K): 0.000487
- solubility (mole fraction) (in n-pentanol, 323.15 K): 0.000628
- solubility (mole fraction) (in n-pentanol, 328.15 K): 0.000805
- solubility (mole fraction) (in n-pentanol, 333.15 K): 0.00104
- solubility (mole fraction) (in n-propanol, 283.15 K): 6.6e-05
- solubility (mole fraction) (in n-propanol, 288.15 K): 0.000109
- solubility (mole fraction) (in n-propanol, 293.15 K): 0.000126
- solubility (mole fraction) (in n-propanol, 298.15 K): 0.000154
- solubility (mole fraction) (in n-propanol, 303.15 K): 0.000203
- solubility (mole fraction) (in n-propanol, 308.15 K): 0.000253
- solubility (mole fraction) (in n-propanol, 313.15 K): 0.000304
- solubility (mole fraction) (in n-propanol, 318.15 K): 0.000355
- solubility (mole fraction) (in n-propanol, 323.15 K): 0.000409
- solubility (mole fraction) (in n-propanol, 328.15 K): 0.000456
- solubility (mole fraction) (in n-propanol, 333.15 K): 0.000502
- solubility (mole fraction) (in sec-butanol, 283.15 K): 3.8e-05
- solubility (mole fraction) (in sec-butanol, 288.15 K): 6.8e-05
- solubility (mole fraction) (in sec-butanol, 293.15 K): 9e-05
- solubility (mole fraction) (in sec-butanol, 298.15 K): 0.000129
- solubility (mole fraction) (in sec-butanol, 303.15 K): 0.000166
- solubility (mole fraction) (in sec-butanol, 308.15 K): 0.000205
- solubility (mole fraction) (in sec-butanol, 313.15 K): 0.000245
- solubility (mole fraction) (in sec-butanol, 318.15 K): 0.000293
- solubility (mole fraction) (in sec-butanol, 323.15 K): 0.000321
- solubility (mole fraction) (in sec-butanol, 328.15 K): 0.000365
- solubility (mole fraction) (in sec-butanol, 333.15 K): 0.000407
- solubility (mole fraction) (in water, 283.15 K): 0.0457
- solubility (mole fraction) (in water, 288.15 K): 0.0473
- solubility (mole fraction) (in water, 293.15 K): 0.0493
- solubility (mole fraction) (in water, 298.15 K): 0.0511
- solubility (mole fraction) (in water, 303.15 K): 0.053
- solubility (mole fraction) (in water, 308.15 K): 0.0554
- solubility (mole fraction) (in water, 313.15 K): 0.0571
- solubility (mole fraction) (in water, 318.15 K): 0.059
- solubility (mole fraction) (in water, 323.15 K): 0.0612
- solubility (mole fraction) (in water, 328.15 K): 0.0632
- solubility (mole fraction) (in water, 333.15 K): 0.0671
